The test system of one data set is Plasmodium yoelii. Conditions: cited from earlier work; for doses needed to clear the animals from the parasites: P. yoelii infected mice.
The next data set concerns HEK-293 Cells. In words: cells. To be noted: for inhibition at 40 µM: read-out: % Inhibition at 40 µM, HEK-293 Cells; for IC50: value in brackets. The class given is cell-based. Here is the method:
Human Embryonic Kidney cells (HEK293) were maintained in the Dulbecco’s Modified Eagle Medium (DMEM) medium supplemented with 10% FBS. The HEK293 cells were exposed to the compounds in TC-treated 384-wells plates (Falcon, Durham, NC, USA). […] After an additional 5–6 h incubation at standard conditions, the total fluorescence (excitation/emission: 530 nm/595 nm) was measured using the Envision plate reader (PerkinElmer, Waltham, MA, USA).
(§1) The raw data were normalized using the in-plate positive and negative controls to obtain the normalized % inhibition data, which was then used to calculate the IC50 values through a 4-parameter logistic curve fitting in the GraphPad Prism (Version 6.0, La Jolla, CA, USA). The experiments were carried out in two independent biological replicates, each consisting of two technical replicates.

The subject of another data set is P. falciparum Dd2. In words: antiplasmodial imaging assay, P. falciparum Dd2. Conditions: for inhibition at 40 µM / % Inhibition at 40 µM, P. falciparum Dd2: chloroquine- and pyrimethamine-resistant strain; for IC50: read-out: IC50, P. falciparum Dd2. The data set is classed as cell-based, Plasmodium falciparum. Here is the method: (§2) The parasites were subjected to two rounds of sorbitol synchronization before undergoing compound treatment. The ring stage parasites were exposed to the experimental compounds in 384-wells imaging microplates (PerkinElmer CellCarrier, Waltham, MA, USA), as previously described in Reference. The plates were incubated for 72h at 37 °C, 90% N2, 5% CO2, 5% O2, then the parasites were stained with 2-(4-amidinophenyl)-1H–indole-6-carboxamidine (DAPI), and imaged using an Opera QEHS micro-plate confocal imaging system (PerkinElmer, Waltham, MA, USA). The images were analysed as previously described in Reference.
as §1

In a further data set the test system is P. falciparum 3D7. In words: antiplasmodial imaging assay, P. falciparum 3D7. The class given is cell-based, Plasmodium falciparum. To be noted: for inhibition at 40 µM / % Inhibition at 40 µM, P. falciparum 3D7: chloroquine sensitive strain; for IC50: read-out: IC50, P. falciparum 3D7. As to the method:
as §2, §1

Data set [1] deals with chloroquine-sensitive and chloroquine-resistant Plasmodium falciparum strains. Also noted: method as in PMID 14514358. Conditions: chloroquine-sensitive and chloroquine-resistant strains equally; read-out: IC50, growth of P. falciparum; cited from earlier work.
Details of data set [2]: method as in PMID 21454186. To be noted: cited from earlier work.
The subject of another data set is K1 strain. Also noted: method as in PMID 27554496. Conditions: read-out: IC50 against the K1 strain; cited from earlier work.
[3] abbreviates: Homo sapiens, HEK293, 40 µM, 72 h.
Where [4] appears, read: Plasmodium falciparum, DD2, 40 µM, 72 h, read-out: % Inhibition at 40 µM, P. falciparum Dd2.
The mark [5] stands for this setting: Plasmodium falciparum, DD2, 72 h, value in brackets.
Where [6] appears, read: Plasmodium falciparum, 3D7, 40 µM, 72 h, read-out: % Inhibition at 40 µM, P. falciparum 3D7.
The mark [7] stands for this setting: Plasmodium falciparum, 3D7, 72 h, value in brackets.
Where [8] appears, read: Plasmodium falciparum, DD2, 72 h, read-out: % Inhibition at 40 µM, P. falciparum Dd2, 40 µM, 72 h.
Setting [9] is: Plasmodium falciparum, 3D7, 72 h, read-out: % Inhibition at 40 µM, P. falciparum 3D7, 40 µM, 72 h.
Setting [10] is: 40 µM, 72 h, listed as Herbimycin G (1).
[11] abbreviates: 40 µM, 72 h, listed as Elaiophylin (2).
Where [12] appears, read: 72 h, value in brackets, listed as Elaiophylin (2).

The values below come from article PMC6025042, “HSQC-TOCSY Fingerprinting-Directed Discovery of Antiplasmodial Polyketides from the Marine Ascidian-Derived Streptomyces sp. (USC-16018)” (Marine Drugs, 2018).

Read-outs that look alike come from different tables or passages of the source. Some results are limits rather than exact numbers.

Take `C=CCNC1=C2C[C@@H](C)C[C@H](OC)[C@H](O)[C@@H](C)/C=C(\C)[C@H](OC(N)=O)[C@@H](OC)/C=C\C=C(/C)C(=O)NC(=CC1=O)C2=O` [17-AAG, 17-N-allylamino-17-demethoxygeldanamycin]: the “doses needed to clear the animals from the parasites” value in the data set with Plasmodium yoelii was “a second dose of 17-AAG was needed”. Besides, the “efficacy against Plasmodium yoelii in mouse models” value in the data set with Plasmodium yoelii (intra-peritoneal, doses of 7.2 mg/kg) is “effective against Plasmodium yoelii in mouse models”. The “time to complete clearance of parasitemia after reinfection” value in the data set on Plasmodium yoelii (treated mice reinfected with P. yoelii) is 9 days.

On to `C[C@H]1[C@H](OC(=O)CCC(=O)O)O[C@@H]2O[C@@]3(C)CC[C@H]4[C@H](C)CC[C@@H]1[C@@]24OO3` [Artesunate], for which the inhibition at 40 µM in the data set with HEK-293 Cells (setting [3]) is 50.6%; in the data set with P. falciparum Dd2 (setting [4]) it was 98.4%; in the data set with P. falciparum 3D7 (setting [6]) it was 99.6%. The values for the IC50 in the data set on P. falciparum Dd2 (setting [5]) and in the data set with P. falciparum 3D7 (setting [7]) were 1.3 nM and 0.9 nM, respectively.

As for `CCN(CC)CCCC(C)Nc1ccnc2cc(Cl)ccc12` (stereo not shown) [Chloroquine], the “doses needed to clear the animals from the parasites” value with Plasmodium yoelii is “a single dose of chloroquine was sufficient to fully clear the animals from the parasites”. Further, the inhibition at 40 µM in the data set with HEK-293 Cells (Homo sapiens, HEK293, 72 h) is 40.9%; in the data set on P. falciparum Dd2 (setting [8]) it was 96.5%; with P. falciparum 3D7 (setting [9]) it was 98.8%. Moreover, the IC50 in the data set on P. falciparum Dd2 (Plasmodium falciparum, DD2, 72 h) was determined as 87.9 nM; in the data set with P. falciparum 3D7 (Plasmodium falciparum, 3D7, 72 h) it was 10 nM.

Turning to `C[C@H]1[C@@H](O)O[C@@H]2O[C@@]3(C)CC[C@H]4[C@H](C)CC[C@@H]1[C@@]24OO3` [Dihydroartemisinin], the inhibition at 40 µM came to 37.9% in the data set with HEK-293 Cells (setting [3]), 98% with P. falciparum Dd2 (setting [4]) and 99.9% in the data set with P. falciparum 3D7 (setting [6]). Moreover, the IC50 in the data set on P. falciparum Dd2 (setting [5]) was found to be 0.6 nM; in the data set on P. falciparum 3D7 (setting [7]), 0.4 nM.

For the compound `COC1=C2C[C@@H](C)C[C@H](OC)[C@H](O)[C@@H](C)/C=C(\C)[C@H](OC(N)=O)[C@@H](OC)/C=C\C=C(/C)C(=O)NC(=CC1=O)C2=O` [Geld, geldanamycin], the IC50 in data set [1] was 20 nM. In addition, in data set [2], the “water solubility (in words)” value is reported as “low water solubility”.

Consider `COc1ccc(C[C@H](N)C(=O)N[C@H]2[C@@H](O)[C@H](n3cnc4c(N(C)C)ncnc43)O[C@@H]2CO)cc1` [Puromycin], for which the results for the inhibition at 40 µM in the data set with HEK-293 Cells (setting [3]), with P. falciparum Dd2 (setting [4]) and with P. falciparum 3D7 (setting [6]) were 103%, 99.1% and 99%, respectively. Moreover, the IC50 in the data set with HEK-293 Cells (Homo sapiens, HEK293, 72 h) was 1410 nM; in the data set with P. falciparum Dd2 (setting [5]) it was 114 nM; in the data set on P. falciparum 3D7 (setting [7]), 149 nM.

For the compound `CCc1nc(N)nc(N)c1-c1ccc(Cl)cc1` [Pyrimethamine], the inhibition at 40 µM was found to be 68.4% in the data set on HEK-293 Cells (setting [3]), 23.2% in the data set on P. falciparum Dd2 (setting [4]) and 98.7% with P. falciparum 3D7 (setting [6]). In addition, the IC50 in the data set with P. falciparum 3D7 (setting [7]) amounted to 4.7 nM.

Regarding `COc1ccc2nc3cc(Cl)ccc3c(Nc3cc(CN4CCCC4)c(O)c(CN4CCCC4)c3)c2n1` [Pyronaridine], the inhibition at 40 µM with HEK-293 Cells (setting [3]) was found to be 98.7%; with P. falciparum Dd2 (setting [4]) it was 97.8%; in the data set with P. falciparum 3D7 (setting [6]) it was 99.9%. For the same compound, the IC50 was 2830 nM in the data set on HEK-293 Cells (Homo sapiens, HEK293, 72 h); 8.3 nM in the data set on P. falciparum Dd2 (setting [5]); 7.4 nM in the data set with P. falciparum 3D7 (setting [7]).

As to `CO[C@H]1[C@@H](OC)C[C@H](C)[C@@H](OC)C2=C[C@@H](O)C[C@@H](NC(=O)/C(C)=C/C=C\[C@H](OC)[C@@H](OC(N)=O)/C(C)=C/[C@@H]1C)C2=O` [compound 1, herbimycin G], the “% Inhibition at 40 µM, HEK-293 Cells” value in the data set with HEK-293 Cells (40 µM, 72 h) is “no effect”. For the same compound, in the data set on HEK-293 Cells (HEK293), the “cytotoxicity (in words)” value is “no cytotoxicity”. In addition, the “% Inhibition at 40 µM, P. falciparum Dd2” value in the data set on P. falciparum Dd2 (setting [10]) came out at 81.7%. Besides, the inhibition at 40 µM in the data set with P. falciparum Dd2 (setting [8]) is over 75%; in the data set with P. falciparum 3D7 (setting [9]) it was 77%. For the same compound, the “% Inhibition at 40 µM, P. falciparum 3D7” value is over 75% in the data set with P. falciparum 3D7 (40 µM, 72 h) and 77.2% in the data set with P. falciparum 3D7 (setting [10]). For the same compound, the “antiplasmodial activity (in words)” value in the data set with P. falciparum 3D7 (3D7 and Dd2 strains) was “weak antiplasmodial activity”.

For `CC(C)C[C@@H]1NC(=O)[C@@H]2CCCN2C1=O` [compound 3, Cyclo-L-Pro-L-Leu], the “% Inhibition at 40 µM, HEK-293 Cells” value with HEK-293 Cells (40 µM, 72 h) was “no effect”. The inhibition at 40 µM is 39% with P. falciparum Dd2 (setting [4]) and 45.9% in the data set on P. falciparum 3D7 (setting [6]).

For `O=C1N[C@@H](Cc2ccccc2)C(=O)N2CCC[C@@H]12` [compound 4, Cyclo-L-Pro-L-Phe], the “% Inhibition at 40 µM, HEK-293 Cells” value in the data set with HEK-293 Cells (40 µM, 72 h) was “no effect”. Also, the “% Inhibition at 40 µM, P. falciparum Dd2” value in the data set on P. falciparum Dd2 (40 µM, 72 h) is “no effect”. In addition, the “% Inhibition at 40 µM, P. falciparum 3D7” value with P. falciparum 3D7 (40 µM, 72 h) was “no effect”.

With `CC(C)[C@@H]1NC(=O)[C@@H]2CCCN2C1=O` [compound 5, Cyclo-L-Pro-L-Val], the “% Inhibition at 40 µM, HEK-293 Cells” value with HEK-293 Cells (40 µM, 72 h) was “no effect”. Further, in the data set on P. falciparum Dd2 (40 µM, 72 h), the “% Inhibition at 40 µM, P. falciparum Dd2” value was “no effect”. The “% Inhibition at 40 µM, P. falciparum 3D7” value with P. falciparum 3D7 (40 µM, 72 h) is given as “no effect”.

Consider `O=C1N[C@@H](Cc2ccc(O)cc2)C(=O)N2CCC[C@@H]12` [compound 6, Cyclo-L-Pro-L-Tyr], for which the “% Inhibition at 40 µM, HEK-293 Cells” value in the data set on HEK-293 Cells (40 µM, 72 h) is on record as “no effect”. In addition, the “% Inhibition at 40 µM, P. falciparum Dd2” value in the data set with P. falciparum Dd2 (40 µM, 72 h) is given as “no effect”. In the data set with P. falciparum 3D7 (40 µM, 72 h), the “% Inhibition at 40 µM, P. falciparum 3D7” value is “no effect”.

Turning to elaiophylin [compound 2], the “% Inhibition at 40 µM, HEK-293 Cells” value with HEK-293 Cells (40 µM, 72 h) turned out to be 101.9%. Moreover, the IC50 with HEK-293 Cells (72 h) was 1440 nM; with K1 strain it was 214 nM; in the data set on P. falciparum Dd2 (setting [12]), 598 nM; in the data set with P. falciparum 3D7 (setting [12]), 778 nM. In addition, in the data set on HEK-293 Cells (HEK293), the “cytotoxicity (in words)” value is “highly cytotoxic”. For the same compound, the “% Inhibition at 40 µM, P. falciparum Dd2” value in the data set with P. falciparum Dd2 (40 µM, 72 h) is listed as over 75%; in the data set with P. falciparum Dd2 (setting [11]), 86.1%. Besides, the “% Inhibition at 40 µM, P. falciparum 3D7” value with P. falciparum 3D7 (40 µM, 72 h) is on record as over 75%; in the data set with P. falciparum 3D7 (setting [11]), 96.6%.
